Where “and” joins values, the source holds several entries; their conditions need not be identical. Equal values may be shown once. Inconclusive results are not listed.
Tested on: C3AKF1 mice, osteogenic sarcoma HE10734 s.c., tumor weight T/C
Experiment: NCI In Vivo Anticancer Drug Screen. Data for tumor model Osteogenic Sarcoma HE 10734 (subcutaneous) in C3AKF1 (CHKRF1) mice
Settings: endpoint: mean tumor weight, schedule: Q01DX010 (ip), higher = larger tumour
Procedure: The antitumor activity of compounds was measured in mice bearing transplantable tumors. Survival or tumor size were measured and the results are expressed as the measurement made in the treated group (T) divided by the measurement made in the vehicle treated control group (C). The tumor model used in this assay is Osteogenic Sarcoma HE 10734 (subcutaneous) in C3AKF1 (CHKRF1) mice

[1] = dose: 20.0 mg/kg/injection, vehicle: saline
[2] = dose: 40.0 mg/kg/injection, vehicle: saline
[3] = dose: 125.0 mg/kg/injection, vehicle: saline

With `O=C1N(Cl)C(=O)C(c2ccc(Cl)cc2)(c2ccc(Cl)cc2)N1Cl` the T/C (dose: 10.0 mg/kg/injection, vehicle: saline) was 70 % of control, the T/C [1] was 58 % of control and the T/C [2] was 90 % of control. The T/C (dose: 80.0 mg/kg/injection, vehicle: saline) was 67 % of control and 77 % of control, the T/C (dose: 120.0 mg/kg/injection, vehicle: saline) was 48 % of control and the T/C (dose: 180.0 mg/kg/injection, vehicle: saline) was 55 % of control. For the same compound, the T/C (dose: 270.0 mg/kg/injection, vehicle: saline) was 53 % of control.
In the case of `O=P(c1ccccc1)(N1CC1)N1CC1`, the T/C (dose: 3.13 mg/kg/injection, vehicle: saline) is reported as 106 % of control, the T/C (dose: 6.25 mg/kg/injection, vehicle: saline) is reported as 93 % of control and the T/C (dose: 12.5 mg/kg/injection, vehicle: saline) is reported as 105 % of control. For the same compound, the T/C (dose: 25.0 mg/kg/injection, vehicle: saline) was 68 % of control and 71 % of control.
In the case of `CSc1ncnc2c1ncn2C1CCCO1` (stereo not drawn), the T/C [1] is reported as 76 % of control, the T/C [2] is reported as 83 % of control and the T/C (dose: 160.0 mg/kg/injection, vehicle: saline) is reported as 44 % of control.
`CCCCn1cnc2c(=S)nc(N)[nH]c21` was tested, and the T/C (dose: 3.0 mg/kg/injection, vehicle: saline) was 49 % of control, the T/C (dose: 6.0 mg/kg/injection, vehicle: saline) was 51 % of control and the T/C (dose: 11.0 mg/kg/injection, vehicle: saline) was 29 % of control. For the same compound, the T/C (dose: 22.0 mg/kg/injection, vehicle: saline) was 7 % of control.
For `O=C(O)Cc1ccc(C2CCCCC2)cc1`, the T/C (dose: 150.0 mg/kg/injection, vehicle: carboxymethylcellulose (CMC)) was 95 % of control.
In the case of `CN(N=O)C(N)=O`, the T/C (dose: 10.0 mg/kg/injection, vehicle: carboxymethylcellulose (CMC)) is reported as 47 % of control and 55 % of control, the T/C (dose: 16.0 mg/kg/injection, vehicle: carboxymethylcellulose (CMC)) is reported as 34 % of control and 39 % of control and the T/C (dose: 25.0 mg/kg/injection, vehicle: carboxymethylcellulose (CMC)) is reported as 38 % of control.
`O=C(Nc1ccc(C2=NCCN2)cc1)c1ccc(C(=O)Nc2ccc(C3=NCCN3)cc2)c(NC(=O)c2ccc(C(=O)Nc3cc(C(=O)Nc4ccc(C5=NCCN5)cc4)ccc3C(=O)Nc3ccc(C4=NCCN4)cc3)cc2)c1` was tested, and the T/C (dose: 28.0 mg/kg/injection, vehicle: saline) was 111 % of control, the T/C (dose: 45.0 mg/kg/injection, vehicle: saline) was 104 % of control and the T/C (dose: 65.0 mg/kg/injection, vehicle: saline) was 118 % of control. The T/C (dose: 95.0 mg/kg/injection, vehicle: saline) was 98 % of control and 107 % of control, the T/C (dose: 140.0 mg/kg/injection, vehicle: saline) was 93 % of control and the T/C (dose: 210.0 mg/kg/injection, vehicle: saline) was 89 % of control. The T/C (dose: 315.0 mg/kg/injection, vehicle: saline) was 110 % of control.
With `O=c1n(CCCl)c(=O)n(CCCl)c(=O)n1CCCl` the T/C (dose: 31.0 mg/kg/injection, vehicle: saline) was 81 % of control, the T/C (dose: 62.0 mg/kg/injection, vehicle: saline) was 83 % of control and the T/C [3] was 75 % of control. The T/C (dose: 370.0 mg/kg/injection, vehicle: saline) was 116 % of control.
`Nc1nc(SCc2ccccc2)c2ncn(C3CCCC3)c2n1` was tested, and the T/C [3] was 80 % of control, the T/C (dose: 250.0 mg/kg/injection, vehicle: saline) was 115 % of control and the T/C (dose: 500.0 mg/kg/injection, vehicle: saline) was 83 % of control. For the same compound, the T/C (dose: 1000.0 mg/kg/injection, vehicle: saline) was 63 % of control.
With `CCCC(Sc1nc(N)nc2nc[nH]c12)C(=O)O` (stereo not drawn) the T/C (dose: 50.0 mg/kg/injection, vehicle: saline) was 80 % of control, the T/C (dose: 100.0 mg/kg/injection, vehicle: saline) was 53 % of control and the T/C (dose: 200.0 mg/kg/injection, vehicle: saline) was 40 % of control. The T/C (dose: 400.0 mg/kg/injection, vehicle: saline) was 17 % of control.
In the case of `CCCC(=O)NC1=C(N2CC2)C(=O)C(NC(=O)CCC)=C(N2CC2)C1=O`, the T/C (dose: 0.5 mg/kg/injection, vehicle: saline) is reported as 104 % of control, the T/C (dose: 0.75 mg/kg/injection, vehicle: saline) is reported as 72 % of control and the T/C (dose: 1.1 mg/kg/injection, vehicle: saline) is reported as 83 % of control. For the same compound, the T/C (dose: 1.7 mg/kg/injection, vehicle: saline) was 47 % of control and 60 % of control.
`O=C(c1ccc(C(=O)N2CC2)cc1)N1CC1` was tested, and the T/C (dose: 3.13 mg/kg/injection, vehicle: carboxymethylcellulose (CMC)) was 55 % of control, the T/C (dose: 6.25 mg/kg/injection, vehicle: carboxymethylcellulose (CMC)) was 106 % of control and the T/C (dose: 12.5 mg/kg/injection, vehicle: carboxymethylcellulose (CMC)) was 118 % of control.
